Laboratory results: ChEMBL document CHEMBL1142119, “Cytotoxic alkylpiperidine alkaloids from the Brazilian marine sponge Pachychalina alcaloidifera” (J Nat Prod, 2007)

Legend:
Format in all cases: cell-based
[1] = test system: HCT-8; test: Cytotoxicity against human HCT8 cells by MTT assay
[2] = Cytotoxicity against human MDA-MB435 cells by MTT assay; settings: mda-mb-435
[3] = test system: HL-60; test: Cytotoxicity against human HL60 cells by MTT assay
[4] = test system: SF-295; test: Cytotoxicity against human SF295 cells by MTT assay

| Compound | Activity [1] [µg/mL] | Activity [2] [µg/mL] | Activity [3] [µg/mL] | Activity [4] [µg/mL] |
| --- | --- | --- | --- | --- |
| OC1\C=C/C=C/C=C/CC[C@H]2CN3CCCCCCCCCCCC[C@H]4C[C@H](CN(C1)C4)[C@@H]2CC3 (stereo partly specified) | > 25 | 3.1 | 6.9 | 8.7 |
| OC1/C=C\C=C/CCCCCC[C@H]2CN3CC/C=C\CCCCCCC4C[C@@H](CN(C1)C4)[C@H]2CC3 (stereo partly specified) [ARENOSCLERIN D] | 6.2 | 1.2 | 2.1 | 5.9 |
| C1=C\CCCCC[C@H]2CN3CC/C=C\CCCCCC[C@@H]4C[C@@H](CN(CC/C=C\C/1)C4)[C@H]2CC3 [HALICLONACYCLAMINE F] | 8.6 | 1 | 2.2 | 4.5 |
| O[C@H]1/C2=C\C/C=C/C=C\C=C/CCN3CC45CCCCCCCCCCCCN(CC1C4CC23)C5 (stereo partly specified) [MADANGAMINE F] | > 25 | 16.2 | 16.7 | 19.8 |
